Assay results: ChEMBL document CHEMBL1201862, “PubChem BioAssay data set” (2004)
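All cell lines were grown in 96-well plates and treated with compound for 48 hours. The concentration for 50% growth inhibition is given as GI50.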 Active and inactive are the calls of the source. No stated cut-off is given here; in the data, active = GI50 up to about 1.1 µM and inactive = higher.

Legend:
Experiment in all cases: inhibition of tumour cell growth, NCI panel, 48 h
[1] = system: M14
[2] = system: A498
[3] = system: HCT-15
[4] = system: OVCAR-8
[5] = system: COLO 205
[6] = system: U-251
[7] = system: SK-OV-3
[8] = system: A549
[9] = system: 786-0
[10] = system: UO-31
[11] = system: CAKI-1
[12] = system: OVCAR-5
[13] = system: KM12
[14] = system: MOLT-4
[15] = system: TK-10
[16] = system: HCT-116

NC(=O)c1csc(C2OC(COP(=O)(O)CP(=O)(O)OCC3OC(n4cnc5c(N)ncnc54)C(O)C3O)C(O)C2O)n1 (stereo not given)
GI50 [1]: > 100 µM (inactive)
GI50 [2]: > 100 µM (inactive)
GI50 [3]: 78.3 µM
GI50 [4]: > 100 µM (inactive)
GI50 [5]: 91.2 µM (inactive)
GI50 [6]: > 100 µM (inactive)
GI50 [7]: > 100 µM (inactive)
GI50 [8]: > 100 µM (inactive)
GI50 [9]: > 100 µM (inactive)
GI50 [10]: > 100 µM (inactive)
GI50 [11]: > 100 µM (inactive)
GI50 [12]: > 100 µM (inactive)
GI50 [13]: > 100 µM (inactive)
GI50 [14]: > 100 µM (inactive)
GI50 [15]: > 100 µM (inactive)

CCN(CC)C(=O)c1cc(OC(C)C)ccc1-c1c(C)cc(OC(C)C)c(OC)c1OC
GI50 [1]: 79.4 µM (inactive)
GI50 [3]: 46.9 µM
GI50 [4]: 58.5 µM (inactive)
GI50 [5]: 63.7 µM (inactive)
GI50 [6]: 63 µM (inactive)
GI50 [7]: > 100 µM (inactive)
GI50 [16]: 38.2 µM (inactive)
GI50 [8]: 48.6 µM (inactive)
GI50 [10]: 86.3 µM (inactive)
GI50 [11]: 84.5 µM (inactive)
GI50 [12]: > 100 µM (inactive)
GI50 [13]: 57.8 µM (inactive)
GI50 [14]: 25.5 µM (inactive)
GI50 [15]: > 100 µM (inactive)

O=C1CN2C(Cl)(Cl)C2(c2ccccc2)c2cc(Cl)ccc2N1CC1CC1 (stereo not given)
GI50 [1]: 20.1 µM (inactive)
GI50 [3]: 19.3 µM
GI50 [4]: 14.6 µM (inactive)
GI50 [5]: 19.9 µM (inactive)
GI50 [6]: 19.1 µM (inactive)
GI50 [16]: 18.3 µM (inactive)
GI50 [10]: 26 µM (inactive)
GI50 [11]: 23.3 µM (inactive)
GI50 [12]: 37.4 µM (inactive)
GI50 [13]: 16.6 µM (inactive)
GI50 [14]: 24 µM (inactive)
GI50 [15]: 33.8 µM (inactive)

COc1ccc(C2N(NC(=O)c3ccncc3)C(=O)CS2(=O)=O)cc1F (stereo not given)
GI50 [1]: > 100 µM (inactive)
GI50 [2]: > 100 µM (inactive)
GI50 [3]: > 100 µM
GI50 [5]: > 100 µM (inactive)
GI50 [6]: > 100 µM (inactive)
GI50 [7]: > 100 µM (inactive)
GI50 [16]: > 100 µM (inactive)
GI50 [8]: > 100 µM (inactive)
GI50 [11]: > 100 µM (inactive)
GI50 [12]: > 100 µM (inactive)
GI50 [13]: > 100 µM (inactive)
GI50 [14]: 14 µM (inactive)
GI50 [15]: > 100 µM (inactive)

O=c1ccc2cc3ccc4cccc5ccc(c2o1)c3c45
GI50 [1]: > 100 µM (inactive)
GI50 [2]: 16 µM (inactive)
GI50 [3]: > 100 µM
GI50 [4]: 23.2 µM (inactive)
GI50 [5]: > 100 µM (inactive)
GI50 [6]: 13.1 µM (inactive)
GI50 [7]: 13.6 µM (inactive)
GI50 [10]: 14.3 µM (inactive)
GI50 [11]: > 100 µM (inactive)
GI50 [14]: > 100 µM (inactive)
GI50 [15]: > 100 µM (inactive)

CC(=O)N/C(=C\c1ccc(Cc2nc3c([nH]2)C(=O)c2ccccc2C3=O)cc1)c1nc2c([nH]1)C(=O)c1ccccc1C2=O
GI50 [1]: > 100 µM (inactive)
GI50 [2]: > 100 µM (inactive)
GI50 [4]: 43.5 µM (inactive)
GI50 [5]: > 100 µM (inactive)
GI50 [6]: 78.5 µM (inactive)
GI50 [7]: > 100 µM (inactive)
GI50 [16]: > 100 µM (inactive)
GI50 [8]: > 100 µM (inactive)
GI50 [9]: > 100 µM (inactive)
GI50 [10]: > 100 µM (inactive)
GI50 [11]: > 100 µM (inactive)
GI50 [12]: > 100 µM (inactive)
GI50 [13]: > 100 µM (inactive)
GI50 [14]: > 100 µM (inactive)
GI50 [15]: 78.9 µM (inactive)

CC12CCCCC1C(=O)C2(Cl)Cl (stereo not given)
GI50 [1]: 2.03 µM (inactive)
GI50 [2]: 3.94 µM (inactive)
GI50 [3]: 3.35 µM
GI50 [4]: 2.04 µM (inactive)
GI50 [6]: 2.21 µM (inactive)
GI50 [16]: 1.69 µM (inactive)
GI50 [8]: 3.18 µM (inactive)
GI50 [9]: 1.83 µM (inactive)
GI50 [10]: 2.18 µM (inactive)
GI50 [11]: 2.15 µM (inactive)
GI50 [12]: 2.56 µM (inactive)
GI50 [13]: 1.79 µM (inactive)
GI50 [14]: 1.84 µM (inactive)
GI50 [15]: 3.85 µM (inactive)

CCn1c(=O)nc2n(-c3ccccc3)c3ccccc3nc-2c1=O
GI50 [1]: 13.9 µM (inactive)
GI50 [2]: 47.4 µM (inactive)
GI50 [3]: 15.7 µM
GI50 [4]: 19.5 µM (inactive)
GI50 [5]: 3.85 µM (inactive)
GI50 [6]: 17.5 µM (inactive)
GI50 [7]: > 100 µM (inactive)
GI50 [8]: 17.2 µM (inactive)
GI50 [9]: 27.9 µM (inactive)
GI50 [10]: 35.7 µM (inactive)
GI50 [11]: 12.5 µM (inactive)
GI50 [12]: 29.3 µM (inactive)
GI50 [13]: 31.3 µM (inactive)
GI50 [14]: 17.3 µM (inactive)
GI50 [15]: > 100 µM (inactive)

COC1CC(OC)C2OC(c3ccccc3)OCC2O1 (stereo not given)
GI50 [1]: > 100 µM (inactive)
GI50 [3]: > 100 µM
GI50 [4]: > 100 µM (inactive)
GI50 [6]: > 100 µM (inactive)
GI50 [7]: > 100 µM (inactive)
GI50 [16]: > 100 µM (inactive)
GI50 [8]: > 100 µM (inactive)
GI50 [9]: > 100 µM (inactive)
GI50 [10]: > 100 µM (inactive)
GI50 [12]: > 100 µM (inactive)
GI50 [13]: > 100 µM (inactive)
GI50 [14]: > 100 µM (inactive)
GI50 [15]: > 100 µM (inactive)

Cn1ncc2cc3c(Nc4ccc(Cl)cc4)cccc3nc21
GI50 [1]: 18.8 µM (inactive)
GI50 [3]: 14.1 µM
GI50 [4]: 19 µM (inactive)
GI50 [5]: 13.7 µM (inactive)
GI50 [7]: 61.2 µM (inactive)
GI50 [8]: 18.2 µM (inactive)
GI50 [9]: 21.6 µM (inactive)
GI50 [10]: 7.4 µM (inactive)
GI50 [11]: 15.5 µM (inactive)
GI50 [12]: > 10 µM (inactive)
GI50 [13]: 17.3 µM (inactive)
GI50 [14]: 6.82 µM (inactive)
GI50 [15]: 26.9 µM (inactive)
